Data reported in paper PMC5566973 (Frontiers in Pharmacology, 2017).

Tested on: Caco-2 cell monolayers
Assay: in vitro
Method: Caco-2, MDCK and MDCK-MRP2 cells were donated by Prof. Yan Xie and Yueming Ma from Shanghai University of Traditional Chinese Medicine. The cells were grown in culture dishes (Corning® Costar, Cambridge, MA, USA) using DMEM supplemented with 10% FBS, 1% NEAA and 1% penicillin-streptomycin solution. The cells were cultured in 5% CO2 and […] with 90% relative humidity at 37°C. The medium was replaced every other day during incubation. The cells were passaged every 3–4 days between 70 and 80% confluence at a 1:5 split ratio using 0.25% trypsin-EDTA. For the transport experiments, the cells from passages between 30 and 45 were seeded at 1 × 10^5 cells/cm^2 onto permeable polycarbonate inserts (0.45 μm pore size, seeding surface of 0.6 cm^2, Millipore, MA, USA) in 24-well plastic plates. The media in the culture plates were changed every other day for the first week after seeding and were replaced daily afterward. […] The cells were used for the transport experiments 21–28 (Caco-2) or 5–7 (MDCK and MDCK-MRP2) days after seeding, and only monolayers with a TEER-value above 420 Ω cm^2 were used during the studies.
The apical (AP) and basolateral (BL) sides are typical of polarized Caco-2, MDCK and MDCK-MRP2 epithelial cells. Before the experiments, the polarized cell monolayers were washed twice with warm HBSS solution and subsequently preincubated (37°C, 30 min). Afterward, HBSS solution on both sides of the cell monolayers was removed using a mini desktop vacuum pump. […] The final DMSO concentration in the HBSS or drug mixture was below 0.5%. The monolayers were incubated at 37°C, and 100 μL samples were taken at 30, 60, 90, and 120 min from the acceptor compartment and immediately replaced with the same volume of prewarmed fresh blank HBSS. TEER measurements for assessing the membrane integrity took place before and after the experiments.
The apparent permeability coefficients (Papp) and ER were calculated as Equations (2) and (3): […]
where dQ/dt is the steady-state flux, A is the membrane surface area, and C0 is the initial drug concentration in the donor compartment. PappBA is the Papp-value measured in BL to AP direction and PappAB is the Papp-value measured in AP to BL direction. It indicated the involvement of an active transport process when the ER-value is above 1.5 (Hubatsch et al., [2007]).

[1] = Caco-2, 2 μM, + Apigenin 0.025 mM (BCRP)
[2] = Caco-2, 2 μM, + Cimetidine 0.05 mM (OATs)
[3] = Caco-2, 2 μM, + ES 0.05 mM (OATPs)
[4] = Caco-2, 2 μM, + Gly-Sar 10 mM (PEPT1)
[5] = Caco-2, 2 μM, + Ko143 0.01 mM (BCRP)
[6] = Caco-2, 2 μM, + MK571 0.05 mM (MRP2)
[7] = Caco-2, 2 μM, + NaN3 10 mM (ATP)
[8] = Caco-2, 2 μM, + Phloretin 0.3 mM (MCTs)
[9] = Caco-2, 2 μM, + Phloridzin 0.5 mM (SGLT1)
[10] = Caco-2, 2 μM, + Probenecid 0.2 mM (MRP2)
[11] = Caco-2, 2 μM, + Quinidine 0.1 mM (MDR1)
[12] = Caco-2, 2 μM, + TEA 5 mM (OCTs/OCTNs)
[13] = Caco-2, 2 μM, + Verapamil 0.1 mM (MDR1)
[14] = Caco-2, 2 μM, Control (no inhibitor or substrate)
[15] = Caco-2, 2 μM, Control (pH 7.4, 37°C, without EDTA)

COc1ccc2c3c([nH]c2c1)C(C)=NCC3 [Harmaline]
PappAB at pH 7.4 relative to pH 5.5 (Caco-2, 2 μM): 3.65 folds
PappAB (Caco-2, 2 μM, 4°C): 7.59 ± 0.33^*** 1 × 10^−6 cm/s
PappAB (Caco-2, 2 μM, 4°C, listed as harmaline): 7.59 ± 0.33 1 × 10^−6 cm/s
Modulatory effect [1]: −
PappAB [1]: 27.85 ± 2.09 1 × 10^−6 cm/s
PappBA [1]: 26.04 ± 1.43 1 × 10^−6 cm/s
Modulatory effect [2]: −
PappBA [2]: 26.16 ± 1.79 1 × 10^−6 cm/s
Modulatory effect [3]: +
PappAB [3]: 24.33 ± 0.49 1 × 10^−6 cm/s
PappBA [3]: 26.41 ± 0.94 1 × 10^−6 cm/s
Modulatory effect [4]: −
PappAB [4]: 27.73 ± 0.95 1 × 10^−6 cm/s
PappBA [4]: 26.31 ± 1.18 1 × 10^−6 cm/s
Modulatory effect [5]: −
PappBA [5]: 26.15 ± 0.48 1 × 10^−6 cm/s
Modulatory effect [6]: −
PappAB [6]: 27.90 ± 1.31 1 × 10^−6 cm/s
PappBA [6]: 25.82 ± 0.71 1 × 10^−6 cm/s
Modulatory effect [7]: +
PappAB [7]: 22.75 ± 2.68^* 1 × 10^−6 cm/s
PappBA [7]: 26.18 ± 1.02 1 × 10^−6 cm/s
Modulatory effect [8]: −
PappAB [8]: 27.77 ± 2.14 1 × 10^−6 cm/s
PappBA [8]: 26.25 ± 0.91 1 × 10^−6 cm/s
Modulatory effect [9]: −
PappAB [9]: 27.57 ± 2.40 1 × 10^−6 cm/s
PappBA [9]: 26.07 ± 1.60 1 × 10^−6 cm/s
Modulatory effect [10]: −
PappAB [10]: 27.22 ± 1.04 1 × 10^−6 cm/s
PappBA [10]: 26.10 ± 1.02 1 × 10^−6 cm/s
Modulatory effect [11]: −
PappAB [11]: 27.54 ± 1.35 1 × 10^−6 cm/s
PappBA [11]: 26.44 ± 1.47 1 × 10^−6 cm/s
Modulatory effect (Caco-2, 2 μM, + Sodium vanadate 0.05 mM (Na^+)): +
Modulatory effect [12]: +
PappBA [12]: 26.75 ± 1.58 1 × 10^−6 cm/s
Modulatory effect [13]: −
PappAB [13]: 27.32 ± 1.33 1 × 10^−6 cm/s
PappBA [13]: 25.68 ± 1.55 1 × 10^−6 cm/s
PappAB [14]: 27.48 ± 0.18 1 × 10^−6 cm/s
PappBA [14]: 26.19 ± 4.02 1 × 10^−6 cm/s
PappAB [15]: 27.72 ± 1.06 1 × 10^−6 cm/s
PappBA [15]: 26.42 ± 0.49 1 × 10^−6 cm/s
PappAB (Caco-2, 2 μM, with EDTA 5 mM): 35.23 ± 2.68^* 1 × 10^−6 cm/s
PappBA (Caco-2, 2 μM, with EDTA 5 mM): 39.57 ± 2.10^* 1 × 10^−6 cm/s
PappAB (Caco-2, initial concentration 2 μM): 27.72 ± 1.06 1 × 10^−6 cm/s
ER-values at the tested concentrations (Caco-2 and MDCK, 1, 2, and 5 μM): < 1.5
